From patent publication US8288375B2, “Fungicidal bicyclic pyrazoles” (E.I. du Pont de Nemours and Company, priority 2007, dated 2012)

Experiments:
Assay type in all cases: in vivo
[1] = test system: Erysiphe graminis f. sp. tritici; test: Test A: wheat powdery mildew, test suspension sprayed on wheat seedlings, disease rating; conditions: 200 ppm test suspension; 100 = 100% disease control, 0 = no control
Phytophthora infestans = test: whole plant or invertebrate; conditions: 200 ppm test suspension
Septoria tritici = test: Test E: wheat leaf blotch, test suspension sprayed on wheat seedlings, disease rating; conditions: 200 ppm test suspension;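 also: 200 ppm unless marked * meaning 40 ppm or ** meaning 10 ppm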
[2] = test system: Puccinia recondite f sp. tritici; test: Test B: wheat leaf rust, test suspension sprayed on wheat seedlings, disease rating; conditions: 200 ppm test suspension;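 also: 200 ppm unless marked * meaning 40 ppm or ** meaning 10 ppm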
Septoria nodorum = test: Test D: wheat glume blotch, test suspension sprayed on wheat seedlings, disease rating; conditions: 200 ppm test suspension
Fusarium graminearum = test: whole plant or invertebrate; conditions: 200 ppm test suspension
Pythium aphanidermatum = test: Test L: bluegrass pythium blight, test suspension sprayed on bluegrass seedlings, disease rating; conditions: 200 ppm test suspension;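 also: 200 ppm unless marked * meaning 40 ppm or ** meaning 10 ppm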
Rhizoctonia oryzae = test: Test I: turf brown patch, test suspension sprayed on creeping bent grass seedlings, disease rating; conditions: 200 ppm test suspension
Botrytis cinerea = test: Test H: tomato Botrytis, test suspension sprayed on tomato seedlings, disease rating; conditions: 200 ppm test suspension

SMILES | Test A disease control rating [1] [%] | Test J disease control rating (Phytophthora infestans) [%] | Test E disease control rating (Septoria tritici) [%] | Test B disease control rating [2] [%] | Test D disease control rating (Septoria nodorum) [%] | Test C disease control rating (Fusarium graminearum) [%] | Test L disease control rating (Pythium aphanidermatum) [%] | Test I disease control rating (Rhizoctonia oryzae) [%] | Test H disease control rating (Botrytis cinerea) [%]
Fc1ccc(-c2nn3c(c2-c2ccnc(N4CCC4)n2)CCCC3)cc1 [compound 82] | 81 | 99 | 97 | 91 | 60 | 96 | 0 |  | 
COCC(C)Nc1nccc(-c2c(-c3ccccc3F)nn3c2CCC3)n1 (centres unmarked) [compound 96] | 0 | 98 | 62 | 19 | 0 | 96 | 83 |  | 
CC(C)Nc1nccc(-c2c(-c3ccccc3F)nn3c2CCC3)n1 [compound 97] | 0 | 96 | 61 | 55 | 82 | 100 | 100 |  | 
CC(C)CNc1nccc(-c2c(-c3ccccc3F)nn3c2CCC3)n1 [compound 98] | 0 | 88 | 95 | 74 | 82 | 97 | 99 |  | 
Fc1ccccc1-c1nn2c(c1-c1ccnc(NC3CC3)n1)CCC2 [compound 99] | 0 | 99 | 98 | 94 | 89 | 99 | 100 |  | 
COCC(C)Nc1nccc(-c2c(-c3cccc(F)c3)nn3c2CCC3)n1 (centres unmarked) [compound 100] | 0 | 98 | 92 | 89 | 90 | 99 | 100 |  | 
CCC(C)Nc1nccc(-c2c(-c3cccc(F)c3)nn3c2CCC3)n1 (centres unmarked) [compound 101] | 0 | 57 | 94 | 89 | 92 | 99 | 91 |  | 
CC(C)Nc1nccc(-c2c(-c3cccc(F)c3)nn3c2CCC3)n1 [compound 102] | 73 | 96 | 100 | 92 | 97 | 100 | 99 |  | 
Fc1cccc(-c2nn3c(c2-c2ccnc(NC4CC4)n2)CCC3)c1 [compound 103] | 85 | 99 | 100 | 95 | 99 | 99 | 100 |  | 
Fc1cc(F)cc(-c2nn3c(c2-c2ccnc(NC4CC4)n2)CCC3)c1 [compound 104] | 0 | 88 | 88 | 0 | 0 | 55 | 91 |  | 
CC(C)Nc1nccc(-c2c(-c3ccc(F)cc3)nn3c2CSCC3)n1 [compound 110] | 0 | 99 | 17 | 95 | 60 | 92 | 100 |  | 
CC(CO)Nc1nccc(-c2c(-c3ccc(F)cc3)nn3c2CSCC3)n1 (centres unmarked) [compound 111] | 21 | 80 | 31 | 95 | 64 | 95 | 100 |  | 
C[C@H](CO)Nc1nccc(-c2c(-c3ccc(F)cc3)nn3c2CCOC3)n1 [compound 113] | 0 | 96 | 91 | 97 | 78 | 99 | 100 |  | 
CC(C)Nc1nccc(-c2c(-c3ccsc3)nn3c2COCC3)n1 [compound 118] | 0 | 80 | 82 | 86 | 78 | 98 | 99 |  | 
Cc1cc(-c2nn3c(c2-c2ccnc(NC4CC4)n2)COCC3)ccc1F [compound 119] | 61 | 93 | 87 | 76 | 99 | 100 | 92 |  | 
Cc1cc(-c2nn3c(c2-c2ccnc(NC(C)C)n2)COCC3)ccc1F [compound 120] | 86 | 88 | 95 | 90 | 100 | 100 | 98 |  | 
CC(CO)Nc1nccc(-c2c(-c3ccccc3)nn3c2COCC3)n1 (centres unmarked) [compound 122] | 0 | 99 | 80 | 96 | 73 | 99 | 100 |  | 
Cc1cc(-c2nn3c(c2-c2ccnc(NC(C)CO)n2)COCC3)ccc1F (centres unmarked) [compound 123] | 0 | 91 | 31 | 90 | 0 | 99 | 100 |  | 
CC(CO)Nc1nccc(-c2c(-c3ccsc3)nn3c2COCC3)n1 (centres unmarked) [compound 124] | 0 | 66 | 54 | 86 | 60 | 98 | 99 |  | 
CC(C)Nc1nccc(-c2c(-c3ccc(F)cc3F)nn3c2COCC3)n1 [compound 125] | 20 | 100 | 88 | 86 | 89 | 100 | 100 |  | 
Fc1ccc(-c2nn3c(c2-c2ccnc(NC4CC4)n2)COCC3)c(F)c1 [compound 126] | 0 | 87 | 70 | 86 | 82 | 99 | 99 |  | 
CC(CO)Nc1nccc(-c2c(-c3ccc(F)cc3F)nn3c2COCC3)n1 (centres unmarked) [compound 127] | 0 | 100 | 86 | 97 | 60 | 96 | 99 |  | 
CC(CO)Nc1nccc(-c2c(-c3ccc(F)cc3)nn3c2Cc2ccccc2C3)n1 (centres unmarked) [compound 140] | 0 | 26 | 49 | 90 | 0 | 98 | 99 |  | 
CCNc1nccc(-c2c(-c3ccccc3)nn3c2CCCC3)n1 [compound 143] | 96 |  | 100 | 100 | 100 | 99 |  | 86 | 
c1cc(-c2c(-c3ccsc3)nn3c2CCCC3)nc(NC2CC2)n1 [compound 180] | 79 |  | 100 | 99 | 98 | 96 |  |  | 96
COc1cc(Nc2nccc(-c3c(-c4ccccc4)nn4c3CCCC4)n2)ccc1F [compound 182] | 92 |  | 100 | 77 | 97 |  |  |  | 81
CCNc1nccc(-c2c(-c3ccccc3)nn3c2COCC3)n1 [compound 183] |  |  | 100 | 100 | 97 | 99 |  |  | 81
CNc1nccc(-c2c(-c3cccc(C)c3)nn3c2CCCC3)n1 [compound 187] | 79 |  | 99 | 99 | 92 |  |  |  | 92
